Marks after values point to notes of the source that are not given here.
How the values were obtained:
Assay type in all cases: in vivo
[1] = system: Puccinia recondite f. sp. tritici (the causal agent of wheat leaf rust); test: Test A: wheat leaf rust, preventive spray on wheat seedlings, visual disease rating; conditions: wheat leaf rust, preventive spray on wheat seedlings
Summary of the method: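 This was a preventive test: Puccinia recondite f. sp. tritici inoculum was applied one day after compound spray to run-off. Test suspensions were made in 50/50 acetone/water with 250 ppm surfactant, at 200 ppm (800 g/ha equivalent) or 40 ppm. Visual ratings of % disease control relative to controls were made after 24 h of saturated humidity and 7 growth-chamber days, all at 20° C.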

[2] = system: Septoria tritici (the causal agent of wheat leaf blotch); test: Test B: wheat leaf blotch, preventive spray on wheat seedlings, visual disease rating; conditions: wheat leaf blotch, preventive spray on wheat seedlings
Summary of the method: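 Preventive test: Septoria tritici spores applied one day after run-off spraying of seedlings (200 ppm equals 800 g/ha; some tests 40 ppm). After 48 h at 24 °C saturated atmosphere and 19 days at 20 °C, disease scored visually as % control relative to untreated plants.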

[3] = system: Botrytis cinerea (the causal agent of tomato Botrytis); test: Test C: tomato Botrytis, preventive spray on tomato seedlings, visual disease rating; conditions: tomato Botrytis, preventive spray on tomato seedlings
Summary of the method: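 Preventive test: B. cinerea spore inoculation one day after tomato seedlings were sprayed to run-off with compound suspended in 50/50 acetone–water plus 250 ppm surfactant. Plants held 48 h at 20° C in saturated air, then 3 days at 24° C; visual ratings scored 100 (full control) to 0 versus controls; some entries used 40 ppm.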

[4] = system: Blumeria graminis f. sp. tritici (also known as Erysiphe graminis f. sp. tritici, the causal agent of wheat powdery mildew); test: Test D: wheat powdery mildew, preventive spray on wheat seedlings, visual disease rating; conditions: wheat powdery mildew, preventive spray on wheat seedlings
Summary of the method: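 Preventive test: seedlings sprayed to run-off and inoculated with powdery mildew spores one day later. Suspensions were made in 50/50 acetone/water with 250 ppm Trem 014 surfactant (200 ppm equals 800 g/ha). Visual ratings after 8 days at 20 °C give percent disease control versus controls.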

[5] = no asterisk (standard test suspension concentration, not 40 ppm)
[6] = asterisk: 40 ppm test suspension

## Cc1nc(Cl)n(-c2c(F)cc(F)cc2Br)c1C(O)c1ccc(F)cc1F (single isomer, unassigned) [compound 17]
[1]; [5]
  Test A rating (100 = 100% disease control, 0 = no disease control relative to the controls): 100%
[2]; [5]
  Test B rating (100 = 100% disease control, 0 = no disease control relative to the controls): 100%
[3]; [5]
  Test C rating (100 = 100% disease control, 0 = no disease control relative to the controls): 100%
[4]; [5]
  Test D rating (100 = 100% disease control, 0 = no disease control relative to the controls): 100%

## OC(c1ccc(F)cc1F)c1c(Br)nc(Br)n1-c1ccc(F)cc1Cl (stereo not drawn) [compound 65]
[1]; [6]
  Test A rating (100 = 100% disease control, 0 = no disease control relative to the controls): 100* %
[2]; [6]
  Test B rating (100 = 100% disease control, 0 = no disease control relative to the controls): 100* %
[3]; [6]
  Test C rating (100 = 100% disease control, 0 = no disease control relative to the controls): 100* %
[4]; [6]
  Test D rating (100 = 100% disease control, 0 = no disease control relative to the controls): 64* %

## COc1ccc(C(O)c2c(Br)ncn2-c2ccc(F)cc2Cl)c(F)c1 (racemic) [compound 230]
[1]; [6]
  Test A rating (100 = 100% disease control, 0 = no disease control relative to the controls): 97* %
[2]; [6]
  Test B rating (100 = 100% disease control, 0 = no disease control relative to the controls): 50* %
[3]; [6]
  Test C rating (100 = 100% disease control, 0 = no disease control relative to the controls): 99* %
[4]; [6]
  Test D rating (100 = 100% disease control, 0 = no disease control relative to the controls): 0* %

## OC(c1ccc(Cl)cc1)c1c(Cl)nc(Cl)n1-c1ccc(Cl)cc1Cl (single isomer, unassigned) [compound 87]
[1]; [5]
  Test A rating (100 = 100% disease control, 0 = no disease control relative to the controls): 91%
[2]; [5]
  Test B rating (100 = 100% disease control, 0 = no disease control relative to the controls): 100%
[3]; [5]
  Test C rating (100 = 100% disease control, 0 = no disease control relative to the controls): 60%
[4]; [5]
  Test D rating (100 = 100% disease control, 0 = no disease control relative to the controls): 48%

## COc1ccc(C(O)c2c(Cl)nc(C)n2-c2ccc(F)cc2Br)c(Cl)c1 (stereo not drawn) [compound 333]
[1]; [6]
  Test A rating (100 = 100% disease control, 0 = no disease control relative to the controls): 95* %
[2]; [6]
  Test B rating (100 = 100% disease control, 0 = no disease control relative to the controls): 72* %
[3]; [6]
  Test C rating (100 = 100% disease control, 0 = no disease control relative to the controls): 99* %
[4]; [6]
  Test D rating (100 = 100% disease control, 0 = no disease control relative to the controls): 86* %

## Cc1nc(Cl)c(C(O)c2c(F)cc(F)cc2F)n1-c1ccc(Cl)cc1 (stereo not drawn) [compound 204]
[1]; [5]
  Test A rating (100 = 100% disease control, 0 = no disease control relative to the controls): 19%
[2]; [5]
  Test B rating (100 = 100% disease control, 0 = no disease control relative to the controls): 75%
[3]; [5]
  Test C rating (100 = 100% disease control, 0 = no disease control relative to the controls): 45%
[4]; [5]
  Test D rating (100 = 100% disease control, 0 = no disease control relative to the controls): 0%

## Cc1cc(F)ccc1C(O)c1c(C)nc(Cl)n1-c1ccc(F)cc1F (stereo not drawn) [compound 104]
[1]; [5]
  Test A rating (100 = 100% disease control, 0 = no disease control relative to the controls): 100%
[2]; [5]
  Test B rating (100 = 100% disease control, 0 = no disease control relative to the controls): 100%
[3]; [5]
  Test C rating (100 = 100% disease control, 0 = no disease control relative to the controls): 99%
[4]; [5]
  Test D rating (100 = 100% disease control, 0 = no disease control relative to the controls): 97%

## Cc1nc(Cl)c(C(O)c2ccc(F)cc2F)n1-c1c(F)cc(F)cc1Br (stereo not drawn) [compound 92]
[1]; [5]
  Test A rating (100 = 100% disease control, 0 = no disease control relative to the controls): 100%
[2]; [5]
  Test B rating (100 = 100% disease control, 0 = no disease control relative to the controls): 100%
[3]; [5]
  Test C rating (100 = 100% disease control, 0 = no disease control relative to the controls): 99%
[4]; [5]
  Test D rating (100 = 100% disease control, 0 = no disease control relative to the controls): 95%

## Cc1nc(Br)c(C(O)c2ccc(C#N)cc2F)n1-c1c(F)cccc1F (stereo not drawn) [compound 199]
[1]; [6]
  Test A rating (100 = 100% disease control, 0 = no disease control relative to the controls): 0* %
[2]; [6]
  Test B rating (100 = 100% disease control, 0 = no disease control relative to the controls): 62* %
[3]; [6]
  Test C rating (100 = 100% disease control, 0 = no disease control relative to the controls): 0* %
[4]; [6]
  Test D rating (100 = 100% disease control, 0 = no disease control relative to the controls): 0* %

## Cc1nc(Cl)c(C(O)c2ccc(Cl)cc2Cl)n1-c1c(F)cc(Cl)cc1F (stereo not drawn) [compound 114]
[1]; [6]
  Test A rating (100 = 100% disease control, 0 = no disease control relative to the controls): 99* %
[2]; [6]
  Test B rating (100 = 100% disease control, 0 = no disease control relative to the controls): 100* %
[3]; [6]
  Test C rating (100 = 100% disease control, 0 = no disease control relative to the controls): 0* %
[4]; [6]
  Test D rating (100 = 100% disease control, 0 = no disease control relative to the controls): 0* %

## Cc1cc(F)ccc1C(O)c1c(Cl)nc(Cl)n1-c1ccc(Cl)cc1Cl (single isomer, unassigned) [compound 84]
[1]; [5]
  Test A rating (100 = 100% disease control, 0 = no disease control relative to the controls): 96%
[2]; [5]
  Test B rating (100 = 100% disease control, 0 = no disease control relative to the controls): 100%
[3]; [5]
  Test C rating (100 = 100% disease control, 0 = no disease control relative to the controls): 0%
[4]; [5]
  Test D rating (100 = 100% disease control, 0 = no disease control relative to the controls): 0%

## COc1ccc(C(O)c2c(Br)nc(C)n2-c2c(F)cccc2F)c(Cl)c1 (stereo not drawn) [compound 144]
[1]; [6]
  Test A rating (100 = 100% disease control, 0 = no disease control relative to the controls): 100* %
[2]; [6]
  Test B rating (100 = 100% disease control, 0 = no disease control relative to the controls): 100* %
[3]; [6]
  Test C rating (100 = 100% disease control, 0 = no disease control relative to the controls): 100* %
[4]; [6]
  Test D rating (100 = 100% disease control, 0 = no disease control relative to the controls): 99* %
